According to patent US20130216533A1, “BIOLOGICAL MARKERS FOR IDENTIFYING PATIENTS FOR TREATMENT WITH VEGF ANTAGONISTS” (Genentech, Inc., priority 2012, published 2013):

How the values were obtained:
[1] = tested on: metastatic colorectal carcinoma (CRC); assay: NO16966 first-line metastatic CRC trial, PFS and OS stratified by 22-gene VDV signature; assay type: in vivo, human
Description: Sections from archival tumor samples from patients enrolled in the XELOX treatment arms of NO 16966 were evaluated by a pathologist and high tumor content area macro-dissected for subsequent RNA isolation using the FFPE RNA isolation kit (Roche; 7-10 sections per patient). RNA levels were assessed after cDNA synthesis following standard techniques, with the qPCR protocol on the Fluidigm Biomark platform according to the manufacturer's protocol.
Quantitative histological data from various animal experiments were plotted using Microsoft Excel software. Student's t test was applied to compare data sets of interest and differences with p values <0.05 were considered significant. 103 biopsies out of 1017 patients from the XELOX (capecitabine and oxaliplatin)-containing arm in the NO16966 trial were analyzed for the gene expression of VDV genes. qRT-PCR values were normalized by the housekeeping genes and relative to a universal reference sample to derive delta-delta Ct values. Subsequently, the delta-delta Ct value of each of the 22 VDV genes was mean centered and variance scaled to a Z-score.
For each sample i for which all of the VDV genes were analyzed, a VDV signature score (VDVi) was calculated. The VDVi represents a weighted average of z-scores across the analyzed VDV genes and is given by the algorithm:
wherein Zg,i is the standardized z-score of the qRT-PCR value for gene g of sample i and n, in this instance, is 22. The VDVi value provides quantitative information regarding the extent to which the expression of a particular set of genes is collectively overexpressed or underexpressed relative to a centered mean.
To compare the clinical outcomes (PFS and OS) between marker and/or treatment subgroups, log-rank tests and Cox regression were used, with median time calculated by the Kaplan-Meier analysis. All statistical tests were two-sided.
To test if VDV gene expression could correlate with clinical outcomes, we analyzed VDV gene expression levels in available pre-treatment archival tumor tissue from 103 patients (biomarker evaluable subpopulation) that were enrolled in the XELOX-containing arms. Due to the limited quality and amount of RNA from these clinical samples, gene expression was analyzed in a previously designed and validated “angiogenesis” Fluidigm qRT-PCR chip (FIG. 8B) that included 4 different housekeeping genes (for gene expression normalization), VEGF (as a control), and 22 representative proximal and distal VDV genes comprising: (i) pan-vascular markers such as CD31, CD34, and VE-CADH as indicators of MVD; (ii) key VEGF pathway components and proxVDV genes, including VEGFR-1, VEGFR-2, VEGFR-3, EPHRINB2, NRPs, ESM1, NID2, COL4a2, and LAMA4a; and (iii) additional VDV genes that are components of endothelial signaling pathways and potential modulators of VDV biology, including DLL-4, NOTCH1, ALK1, and EGFL7 (see FIG. 9A for validation of this compacted 22 VDV gene signature).
In these patients, the addition of bevacizumab to chemotherapy provided a statistically significant PFS (HR, 0.59; 95% CI, 0.37 to 0.93; p=0.024) and OS benefit (HR, 0.45; 95% CI, 0.23 to 0.85; p=0.015). […] We then tested the correlation between clinical outcomes and “high” or “low” pre-treatment gene expression. […] In contrast, in “VDV high” patients (FIG. 8D, solid lines), the addition of bevacizumab to chemotherapy vs chemotherapy alone provided a marked and significant PFS(HR, 0.36; 95% CI, 0.17 to 0.77; p=0.0079) and OS (HR, 0.31; 95% CI, 0.11 to 0.93; p=0.036) benefit. […] Thus, in this relatively small 103-patient sample set, the higher expression of a collective VDV gene subset correlates specifically with the improved clinical outcome provided by bevacizumab addition to chemotherapy, and has a predictive effect with respect to PFS.

[2] = tested on: VDV signature genes in Human Inflammatory Breast Cancer; conditions: 19 inflammatory breast cancer patients; one dose as single agent; 21 days post-treatment; published micro-array data; cited from earlier work
[3] = tested on: metastatic colorectal carcinoma (CRC); conditions: cited from earlier work
[4] = addition to oxaliplatin-based chemotherapy, Saltz et al. 2008

## bevacizumab: recombinant humanized anti-VEGF monoclonal antibody generated according to Presta et al. (1997)
[1]; 103 biomarker evaluable patients, addition to chemotherapy (XELOX) vs chemotherapy, 95% CI 0.37 to 0.93, p=0.024
  PFS HR: 0.59
[1]; 103 biomarker evaluable patients, addition to chemotherapy (XELOX), 95% CI 0.23 to 0.85, p=0.015
  OS HR: 0.45
[1]; "VDV high" patients, 95% CI 0.11 to 0.93, p=0.036
  OS HR: 0.31
[1]; "VDV high" patients, addition to chemotherapy vs chemotherapy alone, 95% CI 0.17 to 0.77, p=0.0079
  PFS HR: 0.36
[1]; "VDV low" patients, 95% CI 0.25 to 1.33, p=0.2
  OS HR: 0.58
[1]; "VDV low" patients, combination with chemotherapy vs chemotherapy alone, 95% CI 0.47 to 1.62, p=0.67
  PFS HR: 0.88
[2]
  VDV transcripts post-treatment vs pre-treatment biopsies: clear down regulation of VDV transcripts
[3]; [4]
  OS differences (secondary endpoint), whole NO16966 study: did not reach statistical significance
  PFS (primary endpoint), whole NO16966 study: significantly improved
[3]; in combination with chemotherapy, Hurwitz et al. 2004
  PFS and OS in metastatic CRC: increase progression free survival (PFS) and overall survival (OS)
